“Also recorded” adds a separate entry of the source.
Key:
Assay type in all cases: in vivo, human
[1] = system: anti-β-glucan antibody (IgG ABA); assay: Anti-β-glucan antibody (ABA) levels in serum by ELISA after IV PGG, Phase I healthy donor trial; conditions: for ABA level changes: single dose PGG IV
Protocol: (§1) IPD changes induced by yeast soluble β-glucan were evaluated in a Phase I healthy donor trial, which included three cohorts of 12 healthy human volunteers aged 18-65 years. In Cohort 1, subjects were administered a single dose of 4 mg/kg yeast soluble β-glucan by IV infusion over 2-3 hours. In Cohort 2, subjects were administered 4 mg/kg PGG by IV infusion over 2-3 hours once weekly for 3 weeks. Half of the subjects received premedications which included low dose corticosteroids (4 mg of dexamethasone, PO) and low-dose H1 antagonists (50 mg diphenhydramine.
(§2) In Cohort 3, subjects received either 2 mg/kg PGG or 4 mg/kg PGG by IV infusion over 1-2 hours. The subjects were administered either dose of PGG once weekly for 2 weeks, then given a 2 week wash out (no PGG) and finally received one more dose of PGG (week 5). Adverse events and complete blood counts were evaluated. In addition, whole blood and serum was evaluated for the following at various time points post-infusion: PGG binding to immune cells (monocytes, neutrophils, B-cells, DC subsets), complement activation (C5a and Sc5b9), serum cytokine/chemokine levels, IgG ABA levels, flow cytometry of immune cells, circulating immune complex formation and Quantigene analysis of transcriptional profile. Table 1 lists each subject's pre-dose IgG ABA levels, PGG dose and whether they received premedications.
Subjects were stratified/classified into subgroups based on pre-infusion ABA levels. ABA cutoff levels were selected based on prior studies and are only exemplary. Classification may include only 2 subgroups based on an IgG ABA cutoff level of 15 μg/ml, 20 μg/ml, 25, μg/ml, 30 μg/ml, 35 μg/ml, 40 μg/ml, 45 μg/ml or 50 μg/ml. Classification may also include 3, 4, 5 or more subgroups with each subgroup corresponding to a specific IgG ABA level range. For example, a 3 subgroup classification may include a Low-ABA subgroup encompassing ABA level ranges of <15 μg/ml, <20 μg/ml, <25 μg/ml or <30 μg/ml, a Mid-ABA subgroup encompassing a range having a low end ABA level of 20 μg/ml, 25 μg/ml, 30 μg/ml, 35 μg/ml, 40 μg/ml or 45 μg/ml and a high end ABA level of 30 μg/ml, 35 μg/ml, 40 μg/ml, 45 μg/ml, 50 μg/ml or 55 μg/ml, and a High-ABA subgroup encompassing ABA level ranges of >35 μg/ml, >40 μg/ml, >45 μg/ml, >50 μg/ml, >55 μg/ml, >60 μg/ml, >65 μg/ml or >70 μg/ml. As discussed in International Published Application No. WO2015084732A1, various ABA cutoff levels may be used for reasons such as differences in soluble β-glucan immunotherapy treatments and preferences regarding inclusiveness and exclusiveness of subgroups. Here, subjects whose ABA levels were less than 20 μg/ml were considered Low-ABA. Subjects with ABA levels between 20 μg/ml and 50 μg/ml were considered Mid-ABA. Subjects with ABA levels greater than 50 μg/ml were High-ABA. Serum and cellular IPD markers were analyzed pre-infusion, 15 minutes, 30 minutes and 1 hour post-infusion, end of infusion (EOI) and 1 hour, 2 hours, 3 hours, 4 hours, 24 hours, 48 hours and 168 hours after EOI.
ABA levels were then followed in subjects through single and multiple doses of PGG. ABA levels were measured in serum by ELISA, and subjects were placed in subgroups based on pre-infusion ABA levels: Low-ABA (<20 μg/mL), Mid-ABA (20-50 μg/mL) or High-ABA (>50 μg/mL). Whole blood or serum was drawn from the subjects at various time points before and after a single dose (Cohort 1) or multiple weekly doses (Cohorts 2 and 3) of PGG infusion. […] In some cases, such as shown for subject 67 in the Low-ABA subgroup, the increase may lead to a change in subgroup (Low-ABA to Mid-ABA).
Increasing the time between soluble β-glucan doses may not only promote repeated acute IPD responses but also enhance acute IPD responses, which may increase the effectiveness of soluble β-glucan therapy. […]

[2] = system: complement activation products, C5a and SC5b-9; assay: Complement activation in plasma by ELISA after IV PGG; conditions: healthy subjects, single dose PGG IV
Protocol: as §1
Subjects were stratified/classified into subgroups based on pre-infusion ABA levels. ABA cutoff levels were selected based on prior studies and are only exemplary. Classification may include only 2 subgroups based on an IgG ABA cutoff level of 15 μg/ml, 20 μg/ml, 25, μg/ml, 30 μg/ml, 35 μg/ml, 40 μg/ml, 45 μg/ml or 50 μg/ml. […] Serum and cellular IPD markers were analyzed pre-infusion, 15 minutes, 30 minutes and 1 hour post-infusion, end of infusion (EOI) and 1 hour, 2 hours, 3 hours, 4 hours, 24 hours, 48 hours and 168 hours after EOI.
Levels of complement activity, measured by […] (Quidel) in plasma, were determined by measuring complement activation products, C5a and SC5b-9. Levels were measured week 1 pre-infusion, 15 minutes, 30 minutes and 1 hour post-infusion, EOL 1 hour EOI and week 2 pre-infusion. […]

[3] = system: innate immune activation marker genes; assay: Gene expression in whole blood (Quantigeneplex); conditions: 3 hr post-infusion vs. pre-dose, no premedications
Source text: Whole blood was collected in PaxGene blood collection tubes (BD Biosciences) at various time points pre- and post-PGG administration. RNA was isolated and assayed by Quantigeneplex (Affymetrix) and the relative fold changes were log 2 transformed. Data presented are from subjects treated with PGG without premedications.

[4] = Adverse events after a single dose of IV PGG without premedication
Protocol: as §1, §2
Adverse events were evaluated for subjects after a single dose of IV PGG. Table 2 lists ABA levels and adverse events for subjects that had not received premedication prior to PGG infusion.

SC5b-9 = assay: Example 1: complement activation (SC5b-9) in the cancer subject; conditions: cancer subject after conversion to High-ABA subgroup; IMPRIME PGG 4 mg/kg once every 3 weeks
[5] = system: MIP-1b, IP-10, IL-1 RA and I-TAC; assay: Example 1: cytokine levels in the cancer subject
Protocol: Cytokine levels were also measured during the immunotherapy treatment. […] In addition, less frequent dosing is more convenient and economical for the subject.

For “β(1,6)-[poly-(1,3)-D-glucopyranosyl]-poly-β(1,3)-D-glucopyranose [PGG]”, the “ABA levels over the 5 week course of treatment” value ([1]; Cohort 3: weeks 1, 2, 2 week wash out, week 5 dose, High-, Mid-, Low-ABA subjects) was “Increases in ABA were seen in all subjects with the largest increase occurring after administration of the week 5 dose”, the ABA subgroup classification ([1]; Cohort 3 Low-ABA subject, after the last (week 5) dose) was “converted to the Mid-ABA classification” and the ABA level changes ([1]; High-ABA (>50 μg/ml) healthy subjects) was “dropped during infusion with PGG and then rebounded about 48 hours EOI”. For the same substance, the ABA level changes ([1]; Low-ABA (<20 μg/ml) healthy subjects) was “essentially unaffected”, the ABA level changes ([1]; Mid-ABA (20-50 μg/ml) healthy subjects) was “increased at 48 hours after the EOI” and the “ABA levels after multiple doses” value ([1]; multiple weekly doses of PGG (Cohorts 2 and 3)) was “can increase ABA levels for some subjects”. The “increase in complement activation (SC5b-9 levels)” value [2] was “correlated with ABA levels with levels peaking at EOI”, the “expression of innate immune activation marker genes” value [3] was “consistently increased in subjects with higher levels of ABA” and the “adverse events vs ABA level” value ([4]; no premedication) was “more adverse events occurred as ABA levels increased”. The “infusion reaction-related adverse events (CARPA)” value ([4]; no premedication) was “observed in some, but not all, subjects with ABA levels>20 ug/ml”, the “Adverse Events (CTCAE grade)” value ([4]; subject 002, pre-dose ABA 34.4, no premedication) was “None” and the “Adverse Events (CTCAE grade)” value ([4]; subject 004, pre-dose ABA 39.7, no premedication) was “None”. The “Adverse Events (CTCAE grade)” value ([4]; subject 006, pre-dose ABA 127, no premedication) was “Gr 1 chills; also recorded: Gr 2 nausea/emesis; also recorded: Gr 2 chest pressure”, the “Adverse Events (CTCAE grade)” value ([4]; subject 010, pre-dose ABA 177.9, no premedication) was “Gr 1 back pain; also recorded: Gr 2 chest pressure; also recorded: Gr 2 nausea” and the “Adverse Events (CTCAE grade)” value ([4]; subject 016, pre-dose ABA 27.6, no premedication) was “Gr 1 headache”. The “Adverse Events (CTCAE grade)” value ([4]; subject 022, pre-dose ABA 87.8, no premedication) was “Gr 1 chest pressure; also recorded: Gr 1 light headedness; also recorded: Gr 1 abdominal cramping; also recorded: Gr 2 myalgia”, the “Adverse Events (CTCAE grade)” value ([4]; subject 025, pre-dose ABA 9.9, no premedication) was “None” and the “Adverse Events (CTCAE grade)” value ([4]; subject 034, pre-dose ABA 68.0, no premedication) was “Gr 1 chest pressure; also recorded: Gr 1 warm sensation; also recorded: Gr 1 light headedness; also recorded: Gr 1 nausea; also recorded: Gr 1 hand paresthesia; also recorded: Gr 2 chills; also recorded: Gr 3 headache”. The “Adverse Events (CTCAE grade)” value ([4]; subject 037, pre-dose ABA 10.4, no premedication) was “None”, the “Adverse Events (CTCAE grade)” value ([4]; subject 039, pre-dose ABA 13.6, no premedication) was “Gr 1 headache; also recorded: Gr 1 drowsiness” and the “Adverse Events (CTCAE grade)” value ([4]; subject 043, pre-dose ABA 32.6, no premedication) was “Gr 2 headache”. For the same substance, the “Adverse Events (CTCAE grade)” value ([4]; subject 047, pre-dose ABA 33.6, no premedication) was “None”, the “Adverse Events (CTCAE grade)” value ([4]; subject 055, pre-dose ABA 56.2, no premedication) was “Gr 1 nausea; also recorded: Gr 1 flushing; also recorded: Gr 2 chest pressure; also recorded: Gr 2 dyspnea; also recorded: Gr 2 low back pain; also recorded: Gr 2 headache (delayed); also recorded: Gr 2 back pain (delayed); also recorded: Gr 2 neck/shoulder” and the “Adverse Events (CTCAE grade)” value ([4]; subject 057, pre-dose ABA 37.3, no premedication) was “Gr 1 diarrhea”. The “Adverse Events (CTCAE grade)” value ([4]; subject 058, pre-dose ABA 34.0, elevated pre-dose CIC, no premedication) was “Gr 1 dysuria (delayed); also recorded: Gr 2 myalgia (delayed); also recorded: Gr 2 arthralgia”, the “Adverse Events (CTCAE grade)” value ([4]; subject 067, pre-dose ABA 15.0, no premedication) was “Gr 1 LE stiffness” and the “Adverse Events (CTCAE grade)” value ([4]; subject 068, pre-dose ABA 26.1, no premedication) was “None”. For the same substance, the “Adverse Events (CTCAE grade)” value ([4]; subject 070, pre-dose ABA 58.7, no premedication) was “Gr 1 headache”, the “complement activation (SC5b-9 levels)” value (SC5b-9) was “Acute increases in complement activation” and the “cytokine levels (MIP-1b, IP-10, IL-1 RA, I-TAC)” value ([5]; cancer subject after conversion to High-ABA group, IMPRIME PGG 4 mg/kg once every 3 weeks) was “acute IPD responses were seen”. The “recurrence of acute IPD responses” value ([5]; cancer subject, soluble β-glucan administered once every 3 weeks (SC5b-9 and cytokines)) was “robust, acute IPD responses occurred with each administration”.

From US11815435B2, “Beta glucan immunopharmacodynamics” (HiberCell, Inc., priority 2017, dated 2023)
